Test results from patent US20260184675A1, “CHIRAL ISOMERIC SULFITE COMPOUND AND APPLICATION THEREOF” (Chengdu Hanova BioSciences Co., Ltd, priority 2024, published 2026).

Experiments:
eggs of Thrips = experiment: Effect on hatching of eggs of Thrips, leaf disc method; assay type: in vivo; conditions: 100 ppm; for Hatching rate (%): 5 days after insecticide delivery
Description: (§1) • (1) Preparation of leaf discs containing eggs: 20 female adult mites of Tetranychus cinnabarinus were transferred onto leaf discs of Vicia faba with a diameter of 2.0 cm (with wetted filter paper at the bottom), then covered it with a lidded culture dish and cultivated under moisturizing conditions, the adult mites were removed within 36 hours and microscopic examination and counting were performed on leaf discs containing eggs. • (2) Investigation of egg population base: Before pesticide soaking, a microscopic examination was conducted on the egg basic number of each leaf disc, with 2 replicates set for each treatment. • (3) Pesticide soaking treatment: The leaf butterflies loaded with mite eggs were soaked in clear water and sulfite compounds for 10 seconds, respectively, then taken out and cultivated under moisturizing conditions. Each treatment should be repeated for no less than 3 times. • (4) Cultivation and observation: The […] were cultivated under normal conditions. Five days after insecticide delivery, the hatching status of mite eggs was investigated. • Note: The temperature and humidity conditions of the constant temperature and humidity incubator after the treatment should be controlled so as to avoid excessive temperature differences, which may cause generation and dripping of condensate water in the culture dish, resulting in abnormal death of eggs due to soaking in water; it is also necessary to ensure sufficient strong ambient light, without directing irradiating the leaves. • (5) Survey of Results: The experimental materials of each treatment group were regularly hydrated and moisturized, and the hatching of eggs was observed. On the 7th day after insecticide delivery, the number of hatched eggs for each treatment was recorded, and the survey of results was recorded in the original notebook. According to the experimental requirements and characteristics of agents, the survey time can be shortened or extended.
(§2) • 1) Surveying and recording the number of hatched eggs for each treatment. • 2) Photographing and recording whether there was any pesticide damage to the leaf discs of Vicia faba. • 3) Recording the developmental status of experimental mite eggs, behavior status of nymph mites, including abnormal phenomena such as delayed or stopped development of mite eggs, difficulty in breaking hull for nymph mites, or painful struggles after hatching, etc. • (6) Calculation method: Based on the survey data, the prevention and control effect of each treatment was calculated according to the following formula, and the calculation results were kept to two decimal places.
(§3) This test adopted the method in Test Example 1 of technical section, mainly used leaf disc method to explore the inhibitory effect on hatching of eggs of Thrips by 1-(S,S), 1-(S,R), 1-(R,R), 1-(R,S), 1′-(S,S), 1′-(S,R), 1′-(R,R), 1′-(R,S), compound 1, compound 1′, S-10, R-10, S-10′, R-10′, compound 10, compound 10′, compound 19-(S,S), 19-(S,R), 19-(R,R), 19-(R,S), 19′-(S,S), 19′-(S,R), 19′-(R,R), 19′-(R,S), compound 19, and compound 19′. The concentration of all compounds was 100 ppm.

[1] = test system: eggs of Harmonia axyridis; experiment: Effect on hatching of eggs of Harmonia axyridis, egg card immersion; assay type: in vivo; conditions: 100 ppm; for Number of hatched larvae 4 days after insecticide delivery, Replicate 1 / Number of hatched larvae 4 days after insecticide delivery, Replicate 2 / Number of hatched larvae 4 days after insecticide delivery, Replicate 3: Harmonia axyridis egg cards, immersed 30 seconds; for Hatching rate (%), Replicate 1 / Hatching rate (%), Replicate 2 / Hatching rate (%), Replicate 3: Harmonia axyridis eggs, 4 days after delivery
Description: The eggs of Harmonia axyridis cards (with approximately 20 eggs per card) were purchased from Henan Jiyuan Baiyun Industry Co., Ltd. in Henan Province. The number of eggs on the egg cards was counted as the basic number before insecticide delivery, and 5 cards were used as one treatment, with 3 replicates per treatment. After immersing the egg cards in a 100 ppm insecticide solution for 30 seconds, they were taken out and air dried, then cultivated under moisturizing conditions, and the […] were cultivated at 27° C. 4 days after insecticide delivery, the hatching status of eggs of Harmonia axyridis was investigated, and the prevention and control effect was calculated according to the following formula. [formula] [formula]

eggs of Aleyrodidae = experiment: Effect on hatching of eggs of Aleyrodidae, leaf disc method; assay type: in vivo; conditions: 10 ppm; for Hatching rate (%), Replicate 1 / Hatching rate (%), Replicate 2 / Hatching rate (%), Replicate 3 / Number of hatched larvae 5 days after insecticide delivery, Replicate 1 / Number of hatched larvae 5 days after insecticide delivery, Replicate 2 / Number of hatched larvae 5 days after insecticide delivery, Replicate 3: Aleyrodidae eggs; for Hatching rate (%), Replicate 1 / Hatching rate (%), Replicate 2 / Hatching rate (%), Replicate 3: 5 days after delivery; for Number of hatched larvae 5 days after insecticide delivery, Replicate 1 / Number of hatched larvae 5 days after insecticide delivery, Replicate 2 / Number of hatched larvae 5 days after insecticide delivery, Replicate 3: leaf disc
Description: as §1, §2
as §3, with “Aleyrodidae” for “Thrips”, “by compounds” for “by”, “10” for “100”

Magnaporthe grisea = assay type: cell-based; conditions: 100 ppm; for Average antifungal rate (%) / Antifungal rate of Magnaporthe grisea (%), Replicate 1 / Antifungal rate of Magnaporthe grisea (%), Replicate 2 / Antifungal rate of Magnaporthe grisea (%), Replicate 3: 96-well plate; for Average antifungal rate (%): average of 3 replicates
[2] = test system: eggs of Spodoptera litura; experiment: Effect on hatching of eggs of Spodoptera litura, egg piece soaking; assay type: in vivo; conditions: 500 ppm; for Hatching rate (%), Replicate 1 / Hatching rate (%), Replicate 2 / Hatching rate (%), Replicate 3 / Number of unhatched larvae 4 days after insecticide delivery, Replicate 1 / Number of unhatched larvae 4 days after insecticide delivery, Replicate 2 / Number of unhatched larvae 4 days after insecticide delivery, Replicate 3: Spodoptera litura eggs; for Hatching rate (%), Replicate 1 / Hatching rate (%), Replicate 2 / Hatching rate (%), Replicate 3: 4 days after delivery; for Number of unhatched larvae 4 days after insecticide delivery, Replicate 1 / Number of unhatched larvae 4 days after insecticide delivery, Replicate 2 / Number of unhatched larvae 4 days after insecticide delivery, Replicate 3: soaked 10 minutes
Description: • (1) Preparation of paper containing eggs: the egg mass was cut into small pieces, each containing about 60 eggs, soaked in a preformulated test agent for 10 minutes together with paper for egg raising (concentration of each compound of 500 ppm). After taken out, absorbent paper was used to absorb the excess solution adhered to the paper for egg raising and egg pieces. (2) Cultivation: Each egg piece was separately placed in a glass test tube (5.0 cm in height, 2.5 cm in diameter, the same below), which was sealed with plastic paper punctured with fine holes using insect needles and cultivated in an artificial climate chamber at a temperature of (24±1° C.), a relative humidity of (80±10) %, and a photoperiod of L:D=12:12. When the eggs developed until they were about to hatch, castor leaves with a diameter of about 3 cm were added for feeding the hatching larvae; • (3) Observation: the number of hatched and unhatched eggs per egg piece was checked and recorded, and the hatching rate of eggs was calculated according to the formula. Each treatment was repeated for 3 times. • (4) Survey of results: The experimental materials of each treatment group were regularly hydrated and moisturized, and the hatching of eggs was observed. On the 4th day after insecticide delivery, the number of hatched eggs for each treatment was recorded, and the survey of results was recorded in the original notebook. According to the experimental requirements and characteristics of agents, the survey time can be shortened or extended. • 1) Surveying and recording the number of hatched eggs for each treatment. • 2) Recording the developmental status of experimental eggs of Spodoptera litura, behavior status of nymphs, including abnormal phenomena such as delayed or stopped development of eggs of Spodoptera litura, etc. • (5) Calculation method: Based on the survey data, the prevention and control effect of each treatment was calculated according to the following formula, and the calculation results were kept to two decimal places. [formula] [formula]

[3] = Replicate 1, listed as 1-(R, R)
[4] = Replicate 2, listed as 1-(R, R)
[5] = Replicate 3, listed as 1-(R, R)
[6] = Replicate 1, listed as 1-(R, S)
[7] = Replicate 2, listed as 1-(R, S)
[8] = Replicate 3, listed as 1-(R, S)

With `C[C@H](COS(=O)OCCF)Oc1ccc(Cl)cc1Cl` (stereo partly drawn) [1-(R,R)] the “inhibitory activity on the hatching of eggs of Thrips (in words)” value (eggs of Thrips) was “strong inhibitory activities”, the “Hatching rate (%)” value (eggs of Thrips; [3]) was 0.00% and the “Hatching rate (%)” value (eggs of Thrips; [4]) was 0.00%. The “Hatching rate (%)” value (eggs of Thrips; [5]) was 0.00%, the “Number of hatched larvae 5 days after insecticide delivery” value (eggs of Thrips; [3]) was 0 and the “Number of hatched larvae 5 days after insecticide delivery” value (eggs of Thrips; [4]) was 0. For the same compound, the “Number of hatched larvae 5 days after insecticide delivery” value (eggs of Thrips; [5]) was 0, the “inhibitory activity on the hatching of eggs of Harmonia axyridis (in words)” value [1] was “strong inhibitory activities” and the “Number of hatched larvae 4 days after insecticide delivery, Replicate 1” value ([1]; listed as 1-(R, R)) was 0. The “Number of hatched larvae 4 days after insecticide delivery, Replicate 2” value ([1]; listed as 1-(R, R)) was 0, the “Number of hatched larvae 4 days after insecticide delivery, Replicate 3” value ([1]; listed as 1-(R, R)) was 0 and the “Hatching rate (%), Replicate 1” value ([1]; listed as 1-(R, R)) was 0.00%. The “Hatching rate (%), Replicate 2” value ([1]; listed as 1-(R, R)) was 0.00%, the “Hatching rate (%), Replicate 3” value ([1]; listed as 1-(R, R)) was 0.00% and the “inhibitory activity on the hatching of eggs of Aleyrodidae (in words)” value (eggs of Aleyrodidae) was “strong inhibitory activities”. The “Hatching rate (%), Replicate 1” value (eggs of Aleyrodidae; listed as 1-(R, R)) was 0.00%, the “Hatching rate (%), Replicate 2” value (eggs of Aleyrodidae; listed as 1-(R, R)) was 0.00% and the “Hatching rate (%), Replicate 3” value (eggs of Aleyrodidae; listed as 1-(R, R)) was 0.00%. The “Number of hatched larvae 5 days after insecticide delivery, Replicate 1” value (eggs of Aleyrodidae; listed as 1-(R, R)) was 0, the “Number of hatched larvae 5 days after insecticide delivery, Replicate 2” value (eggs of Aleyrodidae; listed as 1-(R, R)) was 0 and the “Number of hatched larvae 5 days after insecticide delivery, Replicate 3” value (eggs of Aleyrodidae; listed as 1-(R, R)) was 0. The “inhibitory rate against Magnaporthe grisea (in words)” value (Magnaporthe grisea) was “strong inhibitory rate”, the “Average antifungal rate (%)” value (Magnaporthe grisea) was 98.96% and the “Antifungal rate of Magnaporthe grisea (%), Replicate 1” value (Magnaporthe grisea) was 99.41%. For the same compound, the “Antifungal rate of Magnaporthe grisea (%), Replicate 2” value (Magnaporthe grisea) was 99.12%, the “Antifungal rate of Magnaporthe grisea (%), Replicate 3” value (Magnaporthe grisea) was 98.34% and the “inhibitory activity on the hatching of eggs of Spodoptera litura (in words)” value [2] was “good inhibitory activities”. For the same compound, the “Hatching rate (%), Replicate 1” value ([2]; listed as 1-(R, R)) was 22.39%, the “Hatching rate (%), Replicate 2” value ([2]; listed as 1-(R, R)) was 21.05% and the “Hatching rate (%), Replicate 3” value ([2]; listed as 1-(R, R)) was 23.73%. For the same compound, the “Number of unhatched larvae 4 days after insecticide delivery, Replicate 1” value ([2]; listed as 1-(R, R)) was 47, the “Number of unhatched larvae 4 days after insecticide delivery, Replicate 2” value ([2]; listed as 1-(R, R)) was 45 and the “Number of unhatched larvae 4 days after insecticide delivery, Replicate 3” value ([2]; listed as 1-(R, R)) was 45.

With `C[C@H](COS(=O)OCCF)Oc1ccc(Cl)cc1Cl` (stereo partly drawn) [1-(R,S)] the “Hatching rate (%)” value (eggs of Thrips; [6]) was 9.57%, the “Hatching rate (%)” value (eggs of Thrips; [7]) was 9.02% and the “Hatching rate (%)” value (eggs of Thrips; [8]) was 7.95%. The “Number of hatched larvae 5 days after insecticide delivery” value (eggs of Thrips; [6]) was 9, the “Number of hatched larvae 5 days after insecticide delivery” value (eggs of Thrips; [7]) was 12 and the “Number of hatched larvae 5 days after insecticide delivery” value (eggs of Thrips; [8]) was 7. For the same compound, the “Number of hatched larvae 4 days after insecticide delivery, Replicate 1” value ([1]; listed as 1-(R, S)) was 11, the “Number of hatched larvae 4 days after insecticide delivery, Replicate 2” value ([1]; listed as 1-(R, S)) was 9 and the “Number of hatched larvae 4 days after insecticide delivery, Replicate 3” value ([1]; listed as 1-(R, S)) was 10. The “Hatching rate (%), Replicate 1” value ([1]; listed as 1-(R, S)) was 9.91%, the “Hatching rate (%), Replicate 2” value ([1]; listed as 1-(R, S)) was 10.23% and the “Hatching rate (%), Replicate 3” value ([1]; listed as 1-(R, S)) was 10.53%. For the same compound, the “Hatching rate (%), Replicate 1” value (eggs of Aleyrodidae; listed as 1-(R, S)) was 7.95%, the “Hatching rate (%), Replicate 2” value (eggs of Aleyrodidae; listed as 1-(R, S)) was 7.41% and the “Hatching rate (%), Replicate 3” value (eggs of Aleyrodidae; listed as 1-(R, S)) was 7.44%. For the same compound, the “Number of hatched larvae 5 days after insecticide delivery, Replicate 1” value (eggs of Aleyrodidae; listed as 1-(R, S)) was 7, the “Number of hatched larvae 5 days after insecticide delivery, Replicate 2” value (eggs of Aleyrodidae; listed as 1-(R, S)) was 10 and the “Number of hatched larvae 5 days after insecticide delivery, Replicate 3” value (eggs of Aleyrodidae; listed as 1-(R, S)) was 9. The “inhibitory rate against Magnaporthe grisea (in words)” value (Magnaporthe grisea) was “strong inhibitory rate”, the “Average antifungal rate (%)” value (Magnaporthe grisea) was 81.91% and the “Antifungal rate of Magnaporthe grisea (%), Replicate 1” value (Magnaporthe grisea) was 75.86%. The “Antifungal rate of Magnaporthe grisea (%), Replicate 2” value (Magnaporthe grisea) was 83.08%, the “Antifungal rate of Magnaporthe grisea (%), Replicate 3” value (Magnaporthe grisea) was 86.80% and the “Hatching rate (%), Replicate 1” value ([2]; listed as 1-(R, S)) was 64.18%. The “Hatching rate (%), Replicate 2” value ([2]; listed as 1-(R, S)) was 61.40%, the “Hatching rate (%), Replicate 3” value ([2]; listed as 1-(R, S)) was 60.34% and the “Number of unhatched larvae 4 days after insecticide delivery, Replicate 1” value ([2]; listed as 1-(R, S)) was 25. For the same compound, the “Number of unhatched larvae 4 days after insecticide delivery, Replicate 2” value ([2]; listed as 1-(R, S)) was 22 and the “Number of unhatched larvae 4 days after insecticide delivery, Replicate 3” value ([2]; listed as 1-(R, S)) was 23.
